According to patent US7064120B2, “Tricyclic pyridyl carboxamides and derivatives thereof tocolytic oxytocin receptor antagonists” (Wyeth, priority 2001, dated 2006):

Biological target: T1, human vasopressin V2 receptor subtype (Homo sapiens, UniProt P30518)
T1 construct: host or cells: CHO cells, stably transfected (pZeoSV vector)
Experiment: Vasopressin binding in CHO cell membranes expressing human vasopressin V2 subtype receptors ([3H]arginine vasopressin radioligand binding)
Conditions: 100 nM
Procedure: Vasopressin Binding in Chinese Hamster Ovary Cell Membranes Expressing Human Vasopressin V2 Subtype Receptors
Chinese Hamster Ovary (CHO) cells stably transfected with the human V2 subtype receptors were obtained from M. Thibonnier, Case Western Reserve University School of Medicine, Cleveland, Ohio.
The trypsin is removed by aspiration and the cells dislodged by tapping. Cell Culture medium (e.g. 30 mL for 1:30 split) is immediately added and mixed well to inactivate trypsin. 1 mL of detached cells is added to new culture flasks containing fresh Cell Culture medium (e.g. into 25 mL per T-150 flask), and mixed gently. The cells are incubated at 37° C. in 5% CO2. The medium is changed at 3 to 4 day interval (or as appropriate). […] All steps are done under sterile conditions.
The cells are washed twice gently with Hank's Balanced Salt solution (e.g. use 10 mL per T-150 flask). […] The contents are transferred to centrifuge tubes (50 mL) kept in ice bath. All subsequent steps are done at 4° C. The tubes are centrifuged at 300×g for 15 min (1380 rpm on SORVAL, Model RT6000D, using the rotor for 50 mL tubes). The supernatant is discarded and the cells suspended in homogenizing buffer(10 mM Tris-HCl containing 0.25 M sucrose and 1 mM EDTA, pH 7.4) ensuring that the volume of the buffer is about ten times the volume of the cell pellet. The cells are pooled into a centrifuge tube (50 mL) and homogenized with Polytron at setting 6 for 10 sec. The homogenate is transferred into a Potter-Elvjehm homogenizer and homogenized with 3 strokes. The homogenate is centrifuged at 1500×g for 60 min at 4° C. (3100 rpm using SORVAL, model RT6000D, using the rotor for 50 mL tubes). The pellet is discarded. The supernatant is centrifuged at 100,000×g for 60 min. at 4° C. (Beckman L8-80M ultracentrifuge; spin at 37,500 rpm with rotor type 70 Ti for 50 mL tubes; 38,000 rpm with type 80Ti for 15 mL tubes; or 35,800 rpm with rotor type 45Ti). The supernantant is discarded and the pellet suspended in 3 to 4 mL of Tris buffer (50 mM TRIS-HCl, pH 7.4). The protein content is estimated by the Bradford or Lowry method. The volume of the membrane suspension is adjusted with the membrane buffer (50 mM Tris-HCl containing 0.1% BSA and 0.1 mM PMSF) to give 3.0 mg/mL (or as appropriate) of protein. The membranes are aliquoted and stored at −70° C.
In wells of a 96-well format microtiter plate, is added 90, 110 or 130 μL (to make up a final volume of 200 μL) of assay buffer containing 50 mM of Tris-HCl (pH 7.4), […], 1 mg % aprotinin, 1 mg % leupeptin, 2 mg % 1,10-phenanthroline, 10 mg % trypsin inhibitor, and 0.1 mM PMSF. The inhibitors are added on the day of the experiment. The components are mixed at room temperature, and then kept in ice bath following adjustment of the pH to 7.4. […] For vasopressin and other peptide ligands 20 μL of 50% DMSO is added and the assay buffer volume is adjusted accordingly. To each well is added 50 μL of frozen membrane suspension thawed immediately prior to use and diluted in assay buffer to the required concentration (equivalent to 25 to 50 μg of protein/well as needed). 20 μL of 8 nM [^3H]arginine vasopressin ligand in the assay buffer, prepared just before use is added and incubated at room temperature for 60 min. shaking the plate on a mechanical shaker for the first 15 min. The incubation is stopped by rapid filtration of the plate contents followed by wash with ice-cold buffer (50 mM Tris-HCl, pH 7.4) using a cell harvester (Tomtek and Printed filtermat-B filter paper). The filter paper is thoroughly dried (7–12 min. in a microwave oven) and impregnated with MeltiLex B/H melt-on scintillation wax sheets and the radioactivity counted in a betaplate scintillation counter.
Binding data is either reported as percent inhibition at a certain concentration or if an IC50 was calculated, as a nanomolar concentration.

T1 sequence (P30518 whole entry): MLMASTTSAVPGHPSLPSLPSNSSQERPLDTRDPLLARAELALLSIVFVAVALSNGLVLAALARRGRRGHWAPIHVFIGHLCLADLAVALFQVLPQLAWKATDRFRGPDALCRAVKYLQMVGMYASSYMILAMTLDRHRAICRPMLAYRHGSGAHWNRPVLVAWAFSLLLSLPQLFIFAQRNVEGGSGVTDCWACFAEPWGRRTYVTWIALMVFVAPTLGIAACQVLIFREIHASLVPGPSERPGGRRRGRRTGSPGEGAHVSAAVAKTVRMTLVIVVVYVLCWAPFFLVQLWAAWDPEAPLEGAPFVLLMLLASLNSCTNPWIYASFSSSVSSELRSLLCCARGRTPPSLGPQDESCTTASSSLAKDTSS

Row | inhibition at 0.1 µM | Structure (SMILES)
1 | 22% | COc1ccccc1-c1ccc(C(=O)N2Cc3ccc(C(=O)NCCc4ccccn4)n3Cc3ccccc32)cc1OC [Example 58, 10-[(2,2′-Dimethoxy-[1,1′-biphenyl]-4-yl)carbonyl]-N-[2-(2-pyridinyl)ethyl]-10,11-dihydro-5H-pyrrolo[2,1-c][1,4]benzodiazepine-3-carboxamide]
2 | 8% | COc1cccc(-c2ccc(C(=O)N3Cc4ccc(C(=O)NCc5cccnc5)n4Cc4ccccc43)cc2OC)c1 [Example 46, 10-[(2,3′-Dimethoxy-[1,1′-biphenyl]-4-yl)carbonyl]-N-(3-pyridinylmethyl)-10,11-dihydro-5H-pyrrolo[2,1-c][1,4]benzodiazepine-3-carboxamide]
3 | 26% | COc1ccccc1-c1ccc(C(=O)N2Cc3ccc(C(=O)NCCc4ccccn4)n3Cc3ccccc32)cc1C [Example 49, 10-[(2′-Methoxy-2-methyl-[1,1′-biphenyl]-4-yl)carbonyl]-N-[2-(2-pyridinyl)ethyl]-10,11-dihydro-5H-pyrrolo[2,1-c][1,4]benzodiazepine-3-carboxamide]
4 | 16% | COc1cc(C(=O)N2Cc3ccc(C(=O)NCc4cccnc4)n3Cc3ccccc32)ccc1-c1ccccc1C [Example 41, 10-[(2-Methoxy-2′-methyl-[1,1′-biphenyl]-4-yl)carbonyl]-N-(3-pyridinylmethyl)-10,11-dihydro-5H-pyrrolo[2,1-c][1,4]benzodiazepine-3-carboxamide]
5 | 26% | COc1ccccc1-c1ccc(C(=O)N2Cc3ccc(C(=O)NCc4ccccn4)n3Cc3ccccc32)cc1C [Example 24, 10-[(2′-Methoxy-2-methyl-[1,1′-biphenyl]-4-yl)carbonyl]-N-(2-pyridinylmethyl)-10,11-dihydro-5H-pyrrolo[2,1-c][1,4]benzodiazepine-3-carboxamide]

Second part, the molecule before the results:

Row | Structure (SMILES) | inhibition at 0.1 µM
6 | COc1cc(C(=O)N2Cc3ccc(C(=O)NCCc4ccccn4)n3Cc3ccccc32)ccc1-c1cccc2ccccc12 [Example 57, 10-[3-Methoxy-4-(naphthalen-1-yl)benzoyl]-N-[2-(2-pyridinyl)ethyl]-10,11-dihydro-5H-pyrrolo[2,1-c][1,4]benzodiazepine-3-carboxamide] | 33%
7 | O=C(c1ccc2n1Cc1ccccc1N(C(=O)c1ccc(-c3cccc4ccccc34)cc1Cl)C2)N1CCN(c2ccncc2)CC1 [Example 124, {10-[2-Chloro-4-(naphthalen-1-yl)benzoyl]-10,11-dihydro-5H-pyrrolo[2,1-c][1,4]benzodiazepin-3-yl}[4-(4-pyridinyl)-1-piperazinyl]methanone] | 18%
8 | COc1cc(C(=O)N2Cc3ccc(C(=O)N(C)CCc4ccncc4)n3Cc3ccccc32)ccc1-n1c(C)ccc1C [Example 147, 10-[4-(2,5-Dimethyl-1H-pyrrol-1-yl)-3-methoxybenzoyl]-N-methyl-N-[2-(pyridin-4-yl)ethyl]-10,11-dihydro-5H-pyrrolo[2,1-c][1,4]benzodiazepine-3-carboxamide] | 21%
9 | COc1ccccc1-c1ccc(C(=O)N2Cc3ccc(C(=O)N4CCN(c5ccncc5)CC4)n3Cc3ccccc32)cc1 [Example 116, {10-[(2′-Methoxy-[1,1′-biphenyl]-4-yl)carbonyl]-10,11-dihydro-5H-pyrrolo[2,1-c][1,4]benzodiazepin-3-yl}[4-(4-pyridinyl)-1-piperazinyl]methanone] | 63%
10 | COc1cccc(-c2ccc(C(=O)N3Cc4ccc(C(=O)N(C)CCc5ccncc5)n4Cc4ccccc43)cc2C)c1 [Example 128, 10-[(3′-Methoxy-2-methyl-[1,1′-biphenyl]-4-yl)carbonyl]-N-methyl-N-[2-(4-pyridinyl)ethyl]-10,11-dihydro-5H-pyrrolo[2,1-c][1,4]benzodiazepine-3-carboxamide] | 10%
11 | COc1cccc(-c2ccc(C(=O)N3Cc4ccc(C(=O)N(C)CCc5ccncc5)n4Cc4ccccc43)cc2OC)c1 [Example 135, 10-[(2,3′-Dimethoxy-[1,1′-biphenyl]-4-yl)carbonyl]-N-methyl-N-[2-(4-pyridinyl)ethyl]-10,11-dihydro-5H-pyrrolo[2,1-c][1,4]benzodiazepine-3-carboxamide] | 35%
